The source of these data is US7763728B2, “Tetrahydropyridothiophenes” (4SC AG, priority 2005, dated 2010).

Test [1] deals with RKO colon adenocarcinoma cells (RKOp27) arrested by the expression of ectopic p27Kip1. The experiment in a line: Alamar Blue cell viability assay on RKOp27 cells arrested by p27Kip1 expression induced by Ponasterone A. The test is classed as cell-based. Conditions: Homo sapiens, 72 hours incubation, 10 μM Ponasterone A, read-out: IC50 RKO p27 induced (arrested). The gist of the method:
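RKOp27 cells, 15000/well, held in DMEM with 10% FCS and with or without 10 μM Ponasterone A to induce p27Kip1 arrest. Compound dilutions added 24 h after seeding, then 72 h at 37 °C in quadruplicate. Alamar Blue fluorescence (544/590 nm) gave % viability relative to untreated cells.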
For orientation: The colour change of resazurin is a common sign of viable cells or microbes.

The subject of test [2] is RKO (RKOp27) human colon adenocarcinoma cells. The experiment in a line: Alamar Blue cell viability assay, anti-proliferative/cytotoxic activity on proliferating (uninduced) RKOp27 cells. The test is classed as cell-based. The note with it: 72 hours incubation, absence of the inducer Ponasterone A, read-out: IC50 RKO p27 uninduced (proliferating). The method in brief: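 RKOp27 subclones seeded at 5000 cells/well, compounds added after 24 h in DMEM/10% FCS, quadruplicates, 72 h at 37 °C, 5% CO2. Alamar Blue fluorescence (ex 544/em 590 nm) normalised to untreated cells (1% DMSO medium) as 100%; IC50 from concentration-effect curves.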

As a reminder, the IC50 is the concentration at which inhibition is half-maximal. In the case of `COc1cccc(CCC(=O)Nc2sc3c(c2C#N)CCN(C(=O)Cc2cccnc2)C3)c1` [Example 39, N-[3-Cyano-6-(2-pyridin-3-yl-ethanoyl)-4,5,6,7-tetrahydro-thieno[2,3-c]pyridin-2-yl]-3-(3-methoxy-phenyl)-propionamide], the figures for the IC50 in test [1] and in test [2] were at least 40 µM and at most 0.3 µM, respectively.
With `CCOc1ccccc1CCC(=O)Nc1sc2c(c1C#N)CCN(C(=O)Cc1cccnc1)C2` [Example 27, N-[3-Cyano-6-(2-pyridin-3-yl-ethanoyl)-4,5,6,7-tetrahydro-thieno[2,3-c]pyridin-2-yl]-3-(2-ethoxy-phenyl)-propionamide], the results for the IC50 in test [1] and in test [2] were at least 40 µM and at most 0.3 µM, respectively.
Taken in the same sequence, the figures for `CCOc1ccccc1C(C)CC(=O)Nc1sc2c(c1C#N)CCN(C(=O)Cc1cccnc1)C2` (racemic) [Example 67, (RS)—N-[3-Cyano-6-(2-pyridin-3-yl-ethanoyl)-4,5,6,7-tetrahydro-thieno[2,3-c]pyridin-2-yl]-3-(2-ethoxy-phenyl)-butyramide] were over 100 µM and at most 0.3 µM.
As for `COc1cccc(CCC(=O)Nc2sc3c(c2C#N)CCN(C(=O)Cn2ccnc2)C3)c1` [Example 55, N-[3-Cyano-6-(2-imidazol-1-yl-ethanoyl)-4,5,6,7-tetrahydro-thieno[2,3-c]pyridin-2-yl]-3-(3-methoxy-phenyl)-propionamide], the IC50 was at least 40 µM in test [1] and 0.3 to 2 µM in test [2].
Taken in the same sequence, the figures for `CCOc1ccccc1CCC(=O)Nc1sc2c(c1C#N)CCN(C(=O)CCn1ccnc1C)C2` [Example 109, N-{3-Cyano-6-[3-(2-methyl-imidazol-1-yl)-propanoyl]-4,5,6,7-tetrahydro-thieno[2,3-c]pyridin-2-yl}-3-(2-ethoxy-phenyl)-propionamide] were at least 10 µM and at most 0.3 µM.
Consider `COc1cccc(CCC(=O)Nc2sc3c(c2C#N)CCN(C(=O)CCc2ccccn2)C3)c1` [Example 16, N-[3-Cyano-6-(3-pyridin-2-yl-propanoyl)-4,5,6,7-tetrahydro-thieno[2,3-c]pyridin-2-yl]-3-(3-methoxy-phenyl)-propionamide], for which the results for the IC50 in test [1] and in test [2] were over 100 µM and 0.3 to 2 µM, respectively.
As for `CCOc1ccccc1CCC(=O)Nc1sc2c(c1C#N)CCN(C(=O)CCc1ccncc1)C2` [Example 123], the IC50 in test [1] was at least 10 µM; in test [2], at most 0.3 µM.
Taken in the same sequence, the figures for `COc1ccccc1C(C)CC(=O)Nc1sc2c(c1C#N)CCN(C(=O)CCn1ccnc1C)C2` (racemic) [Example 105, (RS)—N-{3-Cyano-6-[3-(2-methyl-imidazol-1-yl)-propanoyl]-4,5,6,7-tetrahydro-thieno[2,3-c]pyridin-2-yl}-3-(2-methoxy-phenyl)-butyramide] were at least 10 µM and 0.3 to 2 µM.
Taken in the same sequence, the figures for `CCCC(=O)N1CCc2c(sc(NC(=O)CCc3ccccc3OC)c2C#N)C1` [Example 91, N-(6-Butyryl-3-cyano-4,5,6,7-tetrahydro-thieno[2,3-c]pyridin-2-yl)-3-(2-methoxy-phenyl)-propionamide] were over 100 µM and at most 0.3 µM.
Take `COc1cccc(CCC(=O)Nc2sc3c(c2C#N)CCN(C(=O)CCn2cnc(C)c2)C3)c1` [Example 154, N-{3-Cyano-6-[3-(4-methyl-imidazol-1-yl)-propanoyl]-4,5,6,7-tetrahydro-thieno[2,3-c]pyridin-2-yl}-3-(3-methoxy-phenyl)-propionamide]: the IC50 is at least 10 µM in test [1] and 0.3 to 2 µM in test [2].
In the same order, the values of `COc1ccccc1C(C)CC(=O)Nc1sc2c(c1C#N)CCN(C(=O)Cc1ccccn1)C2` (racemic) [Example 62, (RS)—N-[3-Cyano-6-(2-pyridin-2-yl-ethanoyl)-4,5,6,7-tetrahydro-thieno[2,3-c]pyridin-2-yl]-3-(2-methoxy-phenyl)-butyramide] are over 100 µM and at most 0.3 µM.
Consider `CCOc1ccccc1CCC(=O)Nc1sc2c(c1C#N)CCN(C(=O)CCOC)C2` [Example 13, N-[3-Cyano-6-(3-methoxy-propanoyl)-4,5,6,7-tetrahydro-thieno[2,3-c]pyridin-2-yl]-3-(2-ethoxy-phenyl)-propionamide], for which the 50% inhibitory concentration (IC50) in test [1] is over 100 µM; in test [2], at most 0.3 µM.
Taken in the same sequence, the figures for `COc1ccc(C)cc1CCC(=O)Nc1sc2c(c1C#N)CCN(C(=O)CCc1cccnc1)C2` [Example 29, N-[3-Cyano-6-(3-pyridin-3-yl-propanoyl)-4,5,6,7-tetrahydro-thieno[2,3-c]pyridin-2-yl]-3-(2-methoxy-5-methyl-phenyl)-propionamide] were over 100 µM and 0.3 to 2 µM.
Taken in the same sequence, the figures for `COc1ccccc1CCC(=O)Nc1sc2c(c1C#N)CCN(C(=O)CCn1ccnc1)C2` [Example 101, N-[3-Cyano-6-(3-imidazol-1-yl-propanoyl)-4,5,6,7-tetrahydro-thieno[2,3-c]pyridin-2-yl]-3-(2-methoxy-phenyl)-propionamide] were at least 40 µM and at most 0.3 µM.
As to `COc1ccccc1C(C)CC(=O)Nc1sc2c(c1C#N)CCN(C(=O)Cc1ccncc1)C2` (racemic) [Example 70, (RS)—N-[3-Cyano-6-(2-pyridin-4-yl-ethanoyl)-4,5,6,7-tetrahydro-thieno[2,3-c]pyridin-2-yl]-3-(2-methoxy-phenyl)-butyramide], the IC50 in test [1] was at least 40 µM; in test [2], at most 0.3 µM.
Regarding `CCOc1ccccc1C(C)CC(=O)Nc1sc2c(c1C#N)CCN(C(=O)CCn1ccnc1)C2` (racemic) [Example 100, (RS)—N-[3-Cyano-6-(3-imidazol-1-yl-propanoyl)-4,5,6,7-tetrahydro-thieno[2,3-c]pyridin-2-yl]-3-(2-ethoxy-phenyl)-butyramide], the values for the IC50 in test [1] and in test [2] were at least 40 µM and 0.3 to 2 µM, respectively.
Taken in the same sequence, the figures for `COc1ccccc1C(C)CC(=O)Nc1sc2c(c1C#N)CCN(C(=O)Cc1cccnc1)C2` (racemic) [Example 66, (RS)—N-[3-Cyano-6-(2-pyridin-3-yl-ethanoyl)-4,5,6,7-tetrahydro-thieno[2,3-c]pyridin-2-yl]-3-(2-methoxy-phenyl)-butyramide] were over 100 µM and at most 0.3 µM.
In the case of `COc1ccc(C)cc1CCC(=O)Nc1sc2c(c1C#N)CCN(C(=O)Cn1cc(C)nc1C)C2` [Example 149, N-{3-Cyano-6-[2-(2,4-dimethyl-imidazol-1-yl)-ethanoyl]-4,5,6,7-tetrahydro-thieno[2,3-c]pyridin-2-yl}-3-(2-methoxy-5-methyl-phenyl)-propionamide], the half-inhibitory concentration (IC50) in test [1] is at least 10 µM; in test [2], 0.3 to 2 µM.
With `COc1ccc(C)cc1CCC(=O)Nc1sc2c(c1C#N)CCN(C(=O)CCn1cnc(C)c1)C2` [Example 157, N-{3-Cyano-6-[3-(4-methyl-imidazol-1-yl)-propanoyl]-4,5,6,7-tetrahydro-thieno[2,3-c]pyridin-2-yl}-3-(2-methoxy-5-methyl-phenyl)-propionamide], the IC50 is at least 10 µM in test [1] and 0.3 to 2 µM in test [2].
Taken in the same sequence, the figures for `COc1ccc(C)cc1CCC(=O)Nc1sc2c(c1C#N)CCN(C(=O)CCn1cc(C)nc1C)C2` [Example 163, N-{3-Cyano-6-[3-(2,4-dimethyl-imidazol-1-yl)-propanoyl]-4,5,6,7-tetrahydro-thieno[2,3-c]pyridin-2-yl}-3-(2-methoxy-5-methyl-phenyl)-propionamide] were at least 10 µM and 0.3 to 2 µM.
Taken in the same sequence, the figures for `COC(=O)CCC(=O)N1CCc2c(sc(NC(=O)CCc3ccccc3OC)c2C#N)C1` [Example 4, 4-{3-Cyano-2-[3-(2-methoxy-phenyl)-propanoylamino]-4,7-dihydro-5H-thieno[2,3-c]pyridin-6-yl}-4-oxo-butyric acid methyl ester] were over 100 µM and 0.3 to 2 µM.
